Test results reported in ChEMBL document CHEMBL1201862, “PubChem BioAssay data set” (2004).
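1) Cells in 96-well plates. 2) Compound, 48 h, 5 concentrations. 3) Linear interpolation between surrounding doses. 4) Unreached endpoint = highest concentration. Abbreviation: GI50, concentration required for 50% inhibition of growth.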 The source made the active and inactive calls. Rule as the data show it: active = GI50 up to about 1.1 µM and inactive = higher.

Columns and labels:
Assay in all cases: NCI anticancer screen, dose series, 48 h
M19-MEL = tested on: M19-MEL
RXF 631 = tested on: RXF 631
A498 = tested on: A498
MDA-MB-435 = tested on: MDA-MB-435
DU-145 = tested on: DU-145
PC-3 = tested on: PC-3
DMS-273 = tested on: DMS-273
KM-20L2 = tested on: KM-20L2
786-0 = tested on: 786-0

Structure (SMILES)	GI50 (M19-MEL)	GI50 (RXF 631)	GI50 (A498)	GI50 (MDA-MB-435)	GI50 (DU-145)	GI50 (PC-3)	GI50 (DMS-273)	GI50 (KM-20L2)	GI50 (786-0)
Cc1cccc(NC(N)=S)c1	> 100 µM (inactive)	> 100 µM (inactive)	> 100 µM (inactive)	–	–	–	–	–	–
COc1ccc(C(=C2C=CC=C2)c2ccc(OC)cc2)cc1	–	–	–	35.8 µM (inactive)	40.7 µM (inactive)	47.5 µM (inactive)	–	–	–
C#CCNC(=O)CCC(N)C(=O)O (stereo not drawn)	> 100 µM (inactive)	–	> 100 µM (inactive)	–	–	–	> 100 µM (inactive)	> 100 µM (inactive)	–
COc1c2c(c3ccccc3c1O)C1C=CC2C1 (stereo not drawn)	2.32 µM (inactive)	–	–	–	–	–	15.7 µM (inactive)	22.3 µM (inactive)	–
COC(=O)C1=C(C)N2CCSC2(C)C(C(=O)OC)C1c1cccc(Cl)c1 (stereo not drawn)	16 µM (inactive)	–	–	–	–	–	–	17.5 µM (inactive)	–
COc1ccc(-c2c3c(nc4[nH]c(=S)[nH]c(=S)c24)CCCC3)cc1OC	–	–	–	34.5 µM (inactive)	35.8 µM (inactive)	24 µM (inactive)	–	–	–
Oc1cc2cc(O)nc(O)c2c(O)n1	> 100 µM (inactive)	> 100 µM (inactive)	> 100 µM (inactive)	–	–	–	> 100 µM (inactive)	> 100 µM (inactive)	–
COP(=O)(OC)C(Cc1c[nH]c2ccccc12)NC(=O)OCc1ccccc1 (stereo not drawn)	–	–	> 100 µM (inactive)	> 100 µM (inactive)	> 100 µM (inactive)	> 100 µM (inactive)	–	–	–
BrC(/C=N/Nc1nnc(-c2ccccc2)c(-c2ccccc2)n1)C(Br)c1ccccc1 (stereo not drawn)	36.1 µM (inactive)	51.4 µM (inactive)	40.2 µM (inactive)	–	–	–	30.5 µM (inactive)	39.8 µM (inactive)	32 µM (inactive)
C[C@H](N)C(=O)N[C@@H]1[C@H]2C(=C(O)C[C@@H](O)[C@@H]2O)C(=O)O[C@@H]1C	> 100 µM (inactive)	–	> 100 µM (inactive)	–	–	–	> 100 µM (inactive)	> 100 µM (inactive)	–
COC1=C(C)C(=O)C2=C(C1=O)[C@@H]1[C@@H]3Cc4c(OC(=O)CO)c(C)c(OC)c(O)c4[C@H](CNC(=O)C(C)=O)N3[C@@H](C#N)[C@H](C2)N1C	< 0.0171 µM (active)	–	0.0959 µM (active)	–	–	–	0.0189 µM (active)	0.0466 µM (active)	–
Cc1cc(O)nc(NN2C(Cl)C(=O)C2c2ccco2)n1 (stereo not drawn)	39.5 µM (inactive)	–	–	–	–	–	33.7 µM (inactive)	39.4 µM (inactive)	–
CCOC(=O)C1=C(C)N(c2ccc(Cl)cc2)C2(O)C=CC(Nc3ccc(Cl)cc3)=C3C(=O)N(c4ccccc4)C(=O)C312 (stereo not drawn)	–	–	1.83 µM (inactive)	1.78 µM (inactive)	4.27 µM (inactive)	2.94 µM (inactive)	–	–	–
CC1=Nc2nc(Cl)cn2C(=O)C1(Cl)Cl	–	–	> 10 µM (inactive)	> 10 µM (inactive)	> 10 µM (inactive)	> 10 µM (inactive)	–	–	–
C/C(N)=N/OCc1nc(C)no1	–	–	–	> 100 µM (inactive)	> 100 µM (inactive)	> 100 µM (inactive)	–	–	> 100 µM (inactive)
COc1ccc([C@@H]2ON(C)[C@H]3CN(C)C(=O)[C@@H]23)cc1	–	–	–	–	> 100 µM (inactive)	> 100 µM (inactive)	–	–	–
CC12CCC(C(=O)OC1=O)C(C)(C)O2 (stereo not drawn)	–	–	–	> 100 µM (inactive)	> 100 µM (inactive)	> 100 µM (inactive)	–	–	–
CC1CC2C3CCC4=CC(=O)C=CC4(C)C3(F)C(O)CC2(C)C1(O)C(=O)COP(=O)(O)O (stereo not drawn)	> 100 µM (inactive)	–	> 100 µM (inactive)	> 100 µM (inactive)	> 100 µM (inactive)	> 100 µM (inactive)	> 100 µM (inactive)	> 100 µM (inactive)	–
CC1[C@@]2(O[C@@H]3C=C4C5CCC6Cc7nc8c(nc7C[C@@]6(C)C5C[C@H](O)[C@@]4(C)[C@]13O)CC1CCc3c(cc4c5c3C(O)C[C@H]5[C@@H](C)C3(O4)OC(C)(C)CC3O)[C@]1(C)C8)O[C@@](C)(CO)C[C@@H]2O (stereo partly drawn)	2.28 µM (inactive)	–	0.129 µM (active)	–	–	–	0.0504 µM (active)	0.37 µM (active)	–
Oc1[nH]c(Nc2cccc(Br)c2)nc2ncnc1-2	–	–	–	93.5 µM (inactive)	73.3 µM (inactive)	98.2 µM (inactive)	–	–	> 100 µM (inactive)
Nc1ccn(C2OC(CO)C(O)C2O)c(=O)c1 (stereo not drawn)	–	–	–	–	–	–	165 µM (inactive)	566 µM (inactive)	–
